The values below come from patent US20090054453A1, “Novel Tetralins as 5-HT6 Modulators” (priority 2006, published 2009).

For this assay, the target named is T1, rat striatal 5-HT6 receptors (Rattus norvegicus, UniProt P31388).
T1 construct: Striatal tissue from adult rats (Sprague-Dawley, 320-370 g, B & K Sweden) were dissected out, weighed and homogenized; from tissue; host or cells: rat striatum (Sprague-Dawley) membranes
As to the kind of experiment: [125I]SB258585 binding to rat striatal 5-HT6 receptors. The following applies: competition with [125I]SB258585, rat striatal membranes. The protocol: Method for [125I]SB258585 binding to rat striatal 5-HT6 receptors
[^125I]SB258585 (1) with specific radioactivity 2000 Ci/mmol was purchased from Amersham Biosciences Europe GmbH, Freiburg, Germany. Other chemicals were purchased from commercial sources and were of analytical grade.
Striatal tissue from adult rats (Sprague-Dawley, 320-370 g, B & K Sweden) were dissected out, weighed and homogenized in buffer containing 50 mM Tris-HCl, 4 mM MgCl2, 1 mM EDTA, 10 μM pargyline and protease inhibitor (Complete, Roche Diagnostics) pH 7.4 using an Ultra-Turrax T8 (IKA Labortechnik, Germany). The tissue homogenate was centrifuged at 48 000×g for 10 min and the pellet was resuspended and recentrifuged as above. […]
Saturation binding studies were carried out in duplicate with 1-3 mg w.w. per tube in 0.5 ml buffer (50 mM Tris, 4 mM MgCl2, 100 mM NaCl, 1 mM EDTA, 5 mM ascorbate and 10 μM pargyline at pH 7.4), 0.2 nM [^125I]SB258585 and unlabelled SB258585 to give a final concentration range of 0.23-20 nM (12 conc.). Non-specific binding was determined in the presence of 10 μM methiothepin. […] The radioactivity was determined in a Packard Tri-Carb 2900TR liquid scintillation counter. Data were analyzed by non-linear regression analyses using PRISM 4.00 (GraphPad Software Inc., San Diego, Calif.). […]

T1 sequence (P31388 whole entry): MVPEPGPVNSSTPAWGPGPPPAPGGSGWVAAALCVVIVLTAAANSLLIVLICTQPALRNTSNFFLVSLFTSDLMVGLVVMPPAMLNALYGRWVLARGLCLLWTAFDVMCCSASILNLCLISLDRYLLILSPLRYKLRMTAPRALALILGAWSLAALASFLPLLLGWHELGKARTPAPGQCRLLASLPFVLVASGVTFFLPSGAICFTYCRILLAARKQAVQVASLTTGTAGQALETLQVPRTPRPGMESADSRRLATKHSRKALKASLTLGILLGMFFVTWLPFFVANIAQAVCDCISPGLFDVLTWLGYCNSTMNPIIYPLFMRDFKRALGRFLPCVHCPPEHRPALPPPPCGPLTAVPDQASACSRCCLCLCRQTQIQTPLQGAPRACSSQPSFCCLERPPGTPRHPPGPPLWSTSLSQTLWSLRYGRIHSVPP

The Ki is a dissociation constant, usually derived from enzyme kinetics or from competition with a known ligand. Low readings indicate a stronger hold on the target, high ones a looser hold on the target. Regarding `CN1CCN(c2cccc3c2C[C@H](NS(=O)(=O)c2ccc4ccccc4c2)CC3)CC1` [Example 12, N-[(2R)-8-(4-Methylpiperazin-1-yl)-1,2,3,4-tetrahydronaphthalen-2-yl]naphthalene-2-sulfonamide], the Ki turned out to be 0.8 nM.
